Values after ≈ are worked out from the molar mass of the structure shown. Values joined by “and” are separate entries in the source; they are usually repeats but may differ in a detail not shown here. Equal entries are not always repeated. Where two headings read alike, the source gives them in different places.
Tests used:
A. baumannii [1] = assay: MIC determination by broth microdilution in A. baumannii; assay type: cell-based, Acinetobacter baumannii (AB5075); details: modified M63 media, 35° C.; for MIC: Acinetobacter baumannii
Description: Pre-cultures (5 mL LB media) were grown for 12 h at 37° C. and 220 rpm in 50 mL conical tubes (VWR International, PA) covered with an air permeable membrane. The cells were then centrifuged at 4,000 rpm for 10 min, the resultant cell pellets washed twice in […] media and then diluted in […] media to OD600=0.01. Stock solutions (100 mM) of analog in DMSO were prepared weekly and stored at 4° C. Prior to initiating experiments in 96 well plates, the analog stock solution was serially diluted to make 10 mM or 1 mM working solutions in DMSO. […] The resultant cell suspension (200 μL) was transferred to a clear-bottom polystyrene 96 well plate (VWR), and incubated at 35° C. and 205 cpm for 13 h in an Epoch 2 microplate spectrophotometer (Biotek Instruments, Inc., Vermont). The growth curve in the presence of Ciprofloxacin was obtained in the same plate. […] MIC determinations were carried out using standard broth microdilution methods in 48 well plates and modified […] media. Cells were incubated at 35° C.

P. aeruginosa [2] = assay: Growth curves and IC50 determination in P. aeruginosa; assay type: cell-based, Pseudomonas aeruginosa (PAO1); details: M63 media, growth % from OD600 at 13 h, three independent experiments
Description: (§1) Pre-cultures (5 mL LB media) were grown for 12 h at 37° C. and 220 rpm in 50 mL conical tubes (VWR International, PA) covered with an air permeable membrane. The cells were then centrifuged at 4,000 rpm for 10 min, the resultant cell pellets washed twice in M63 media and then diluted in M63 media to OD600=0.01. Stock solutions (100 mM) of analog in DMSO were prepared weekly and stored at 4° C. Prior to initiating experiments in 96 well plates, the analog stock solution was serially diluted to make 10 mM or 1 mM working solutions in DMSO. A small volume of the appropriate working solution was transferred to a glass vial, diluted with DMSO to 30 μL, and then diluted to a final volume of 1.5 mL with pre-culture cell suspension with an OD600=0.01. The resultant cell suspension (200 μL) was transferred to a clear-bottom polystyrene 96 well plate (VWR), and incubated at 35° C. and 205 cpm for 13 h in an Epoch 2 microplate spectrophotometer (Biotek Instruments, Inc., Vermont). The growth curve in the presence of Ciprofloxacin was obtained in the same plate. […] MIC determinations were carried out using standard broth microdilution methods in 48 well plates and modified M63 media. Cells were incubated at 35° C.

A. baumannii [3] = assay: Growth curves and IC50 determination in A. baumannii; assay type: cell-based, Acinetobacter baumannii (AB5075); details: AB5075, modified M63 media, 48 well-plates
Description: as §1
This idea was tested with A. baumanni AB5075, a highly virulent isolate, which has been proposed as a model strain for the evaluation of pathogenesis and antimicrobial treatments.^66.

BfrB [4] = target: T1, BfrB (Pseudomonas aeruginosa, UniProt Q9HY79); assay: STD NMR fragment screening with Bfd competitive displacement; assay type: binding; details: STD NMR with Bfd as specific competitor
Excerpt: Fragment Library Screening Using Saturation Transfer Difference (STD) NMR Spectroscopy
Structural information obtained from the BfrB-Bfd complex was used to design a fragment library to screen for molecules that bind BfrB at the Bfd-binding site. […] In addition, fragments capable of π-π stacking were included with both electron rich and deficient aromatic rings. To screen the library in search of fragments that bind BfrB at the Bfd-binding site a competition assay was developed that utilizes saturation transfer difference (STD) NMR spectroscopy. This technique is ideally suited to screen fragments that bind to the large BfrB (˜440 kDa) because protein resonance assignments are not necessary and very low protein concentrations are required. In addition, the large rotational correlation time (τc) of BfrB enhances spin diffusion and therefore saturation transfer within the protein and to the ligand.^51 Two solutions were prepared for each fragment: a solution of the fragment alone, and a solution of the fragment and BfrB. Three spectra were obtained for each fragment. The ^1H spectrum of the fragment alone was used to determine fragment integrity and solubility, the ^1H spectrum of the fragment in the presence of BfrB was used to corroborate that fragment integrity and solubility is not affected by BfrB, and the STD spectrum of the solution containing the fragment and BfrB was used to assess fragment binding. This strategy uncovered 18 compounds that bind BfrB. The specificity criterion for fragment binders, however, is that these bind BfrB specifically at the Bfd-binding site. To eliminate non-specific binders, a displacement strategy was implemented that utilizes Bfd as a specific competitor. For this purpose, a STD spectrum was acquired from a solution containing fragment, BfrB and Bfd. […] These fragments were advanced to the next stage, which was focused on uncovering structural information of fragment binding.

[5] = tested on: wild type P. aeruginosa cells; assay: Growth response of wild type cells to analog (viable cell count); assay type: cell-based, Pseudomonas aeruginosa; details: M63 + 4 μM Fe; 15 h post-inoculation; viable cells vs untreated control
Description: (§2) To this end, wild type and ΔbfrB cells were cultured in M63 media supplemented with 4 μM Fe, in the presence of different concentrations of analog. […] Since BfrB is not essential, it is likely that the cell can compensate for the absence of the iron storage protein. […] The sudden onset of toxicity observed in the second phase, which is not observed with the wild type cells, is probably related to off-target effects that expose a fitness vulnerability caused by the absence of BfrB. Consequently, it is possible to conclude that the dose-dependent growth defect elicited by 11 or 16 on wild type P. aeruginosa cells is largely a consequence of the interaction between the small molecule inhibitors and BfrB in the bacterial cell. This issue was investigated in additional detail (see below) by probing the phenotypic and biochemical response of wild type cells treated with the small molecule inhibitors.

[6] = tested on: ΔbfrB P. aeruginosa cells; assay: Growth response of bfrB deletion mutant cells to analog; assay type: cell-based, Pseudomonas aeruginosa; details: M63 + 4 μM Fe; 15 h post-inoculation; viable cells vs untreated control
Description: as §2

A. baumannii cells = assay: CAS assay for siderophore detection; assay type: cell-based, Acinetobacter baumannii; details: analog 64 μM; modified M63 media; 35° C.
Description: These experiments were carried out in 48 well-plates in a Synergy H1 microplate spectrophotometer as described above for obtaining A. baumannii growth curves. Cultures treated with analog KM-5-25 at 64 μM final concentration were used in these experiments. The cell-free supernatants (25 μL) collected after the 24-h growth curves had been completed was mixed with 175 μL of the CAS assay reagent (10 mM hexadecyltrimethyl ammonium bromide (HDTMA), 1 mM FeCl3·6H2O, 2 mM azurol S-CAS in 145 mM PIPES buffer, pH 5.9).^64 The absorbance at 630 nm was read in an Epoch2 microplate spectrophotometer after 2 h and used to calculate the percent siderophore (PSU) with the aid of equation 3,^65 where Ar is the absorbance of the reference solution (CAS solution and un-inoculated media) and As is the absorbance of the sample (CAS solution and cell-free supernatant). PSU values were normalized to CFU/mL.
The results are illustrated in FIGS. 8A and 8B with observations made when A. baumannii cells are cultured at 35° C. in modified M63 media treated with analogs KM-5-25 and KM-5-35.

apo-BfrB = apo-BfrB (Pseudomonas aeruginosa, UniProt Q9HY79); assay: Fluorescence polarization binding assay, apo-BfrB titrated into fluorescent ligand; details: fluorescence polarization and intensity near emission λmax
Description: Prior to testing the effect that the 4-substituted isoindoline-1,3-dione derivatives might exert on P. aeruginosa cells, the strength of their interaction with BfrB was evaluated in vitro with a fluorescence polarization assay developed based on the intrinsic fluorescence of the isoindoline-1,3-dione moiety.

P. aeruginosa PAO1 = assay: Effect of analogs on the potency of fluoroquinolone antibiotics, strain PAO1; assay type: cell-based, Pseudomonas aeruginosa; details: data not shown
Description: The combined treatment was carried out similarly, ensuring that the final concentration of DMSO was 2%.

P. aeruginosa [7] = details: literature value; cited from earlier work
BfrB [8] = target: T1, BfrB; details: holo-BfrB; previously reported; read-out: Kd, interaction between Bfd and BfrB (holo); cited from earlier work
BfrB [9] = target: T1, BfrB; assay: Bfd association with BfrB in solution; assay type: binding; details: apo-BfrB; read-out: Kd, interaction between Bfd and apo-BfrB

T1 sequence (Q9HY79 whole entry, the tested form may be a part): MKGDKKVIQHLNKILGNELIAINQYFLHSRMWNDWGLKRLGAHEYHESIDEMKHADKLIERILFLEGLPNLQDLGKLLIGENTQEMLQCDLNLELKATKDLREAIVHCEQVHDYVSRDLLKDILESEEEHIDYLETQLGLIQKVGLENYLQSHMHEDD
Chain of apo-BfrB (Q9HY79 whole entry): as the sequence (Q9HY79 whole entry, the tested form may be a part) above

`O=C1NC(=O)c2c(NCCCc3cc(F)ccc3O)cccc21` [JAG-005-006, 4-((3-(5-Fluoro-2-hydroxyphenyl)propyl)amino)isoindoline-1,3-dione] showed an MIC (A. baumannii [1]) of 128 µM (≈ 40.2 µg/mL) and an IC50 (P. aeruginosa [2]; Pseudomonas aeruginosa) of 48 µM.

In the case of `O=C1NC(=O)c2c(NCc3ccc(Br)cc3O)cccc21` [JAG-005-030, 4-((4-Bromo-2-hydroxybenzyl)amino)isoindoline-1,3-dione], the MIC (A. baumannii [1]) is reported as 80 to 128 µM (≈ 27.8 to 44.4 µg/mL) and the IC50 (A. baumannii [3]; Acinetobacter baumannii) is reported as 48 µM.

For “4-((3-(4-Chloro-2-hydroxyphenyl)propyl)amino)isoindoline-1,3-dione [KM-5-66]”, the “A. baumannii MIC” value (A. baumannii [1]) was 80 to 128 µM, the IC50 (A. baumannii [3]) was less than 32 µM and the IC50 (P. aeruginosa [2]) was 48 µM.

In the case of `O=C1NC(=O)c2cc(O)ccc21` [5-hydroxyisoindoline-1,3-dione], the “fragment binding to BfrB, STD signal displaced by Bfd” value (from here on “fragment binding to BfrB”) (BfrB [4]) is reported as “bind at the Bfd-binding site”.

For `O=C1NC(=O)c2c(NCc3cccc(O)c3)cccc21` [Analog 12, 4-((3-Hydroxybenzyl)amino)isoindoline-1,3-dione], the “P. aeruginosa IC50” value (P. aeruginosa [2]) was “Not active”.

With `O=C1NC(=O)c2c(NCc3ccccc3O)cccc21` [Analog 11, 4-((2-Hydroxybenzyl)amino)isoindoline-1,3-dione] the “growth response of wild type cells” value [5] was “monophasic dose-dependent growth defect”, the “growth response of ΔbfrB mutant cells” value [6] was “biphasic growth response” and the IC50 (P. aeruginosa [2]; Pseudomonas aeruginosa) was 258 µM.

In the case of `Cc1cc(NS(=O)(=O)c2ccc(N)cc2)no1` [4-amino-N—(S-methylisoxazol-3-yl)benzenesulfonamide], the “fragment binding to BfrB” value (BfrB [4]) is reported as “bind at the Bfd-binding site”.

With `O=C1NC(=O)c2c(NCc3cc(Br)ccc3O)cccc21` [KM-5-35, 4-((5-Bromo-2-hydroxybenzyl)amino)isoindoline-1,3-dione] the MIC (A. baumannii [1]) was 80 to 128 µM (≈ 27.8 to 44.4 µg/mL), the “siderophores produced relative to untreated control, normalized to CFU/mL” value (A. baumannii cells) was “approximately 2 fold” and the IC50 (A. baumannii [3]; Acinetobacter baumannii) was 64 µM. For the same molecule, the Kd (apo-BfrB) was 2 ± 1.4 µM and the IC50 (P. aeruginosa [2]; Pseudomonas aeruginosa) was 48 µM.

With `Brc1cccc(-c2nnn[nH]2)c1` [5-(3-bromophenyl)-1H-tetrazole] the “fragment binding to BfrB” value (BfrB [4]) was “bind at the Bfd-binding site”.

In the case of `CS(=O)(=O)Nc1ccc(C#N)cc1` [N-(4-cyanophenyl)methanesulfonamide], the “fragment binding to BfrB” value (BfrB [4]) is reported as “bind at the Bfd-binding site”.

With `O=C1NC(=O)c2c(NCc3cc(Cl)ccc3O)cccc21` [KM-5-25, 4-((5-Chloro-2-hydroxybenzyl)amino)isoindoline-1,3-dione] the MIC (A. baumannii [1]) was 128 µM (≈ 38.7 µg/mL), the “siderophores produced relative to untreated control, normalized to CFU/mL” value (A. baumannii cells) was “approximately 2 fold” and the IC50 (A. baumannii [3]; Acinetobacter baumannii) was 64 µM. It also gave a Kd (apo-BfrB) of 2.9 ± 1.9 µM and an IC50 (P. aeruginosa [2]; Pseudomonas aeruginosa) of 64 µM.

For `Nc1cccc2c1C(=O)NC2=O` [Analog 8, reference compound], the “P. aeruginosa IC50” value (P. aeruginosa [2]) was “Not active”.

For `CC(C)(O/N=C(\C(=O)N[C@@H]1C(=O)N2C(C(=O)[O-])=C(C[n+]3ccccc3)CS[C@H]12)c1csc(N)n1)C(=O)O` [ceftazidime, reference compound], the “enhancement of antibacterial activity in combination with the small molecule inhibitors of the BfrB-Bfd interaction” value (P. aeruginosa PAO1) was “no enhancement”.

`O=C1NC(=O)c2c(NCCCc3ccc(O)cc3)cccc21` [Analog 13] showed an IC50 (P. aeruginosa [2]; Pseudomonas aeruginosa) of 201 µM.

For `O=C(O)c1cn(C2CC2)c2cc(N3CCNCC3)c(F)cc2c1=O` [ciprofloxacin], the “reported MIC” value (P. aeruginosa [7]) is given as 0.25 µg/mL.

For gentamycin [reference compound], the “enhancement of antibacterial activity in combination with the small molecule inhibitors of the BfrB-Bfd interaction” value (P. aeruginosa PAO1) was “no enhancement”.

`COc1cc(O)ccc1CCCNc1cccc2c1C(=O)NC2=O` [Analog 15] showed an IC50 (P. aeruginosa [2]; Pseudomonas aeruginosa) of 227 µM.

With `NC[C@H]1O[C@H](O[C@H]2[C@H](O)[C@@H](O[C@H]3O[C@H](CO)[C@@H](O)[C@H](N)[C@H]3O)[C@H](N)C[C@@H]2N)[C@H](N)C[C@@H]1O` [tobramycin, reference compound] the “enhancement of antibacterial activity in combination with the small molecule inhibitors of the BfrB-Bfd interaction” value (P. aeruginosa PAO1) was “no enhancement”.

In the case of `CC(=O)c1ccc2c(c1)NC(=O)CO2` [6-acetyl-2H-benzo[b][1,4]oxazin-3(4H)-one], the “fragment binding to BfrB” value (BfrB [4]) is reported as “bind at the Bfd-binding site”.

For `CCn1cc(C(=O)O)c(=O)c2cc(F)c(N3CCNCC3)cc21` [norfloxacin], the “reported MIC” value (P. aeruginosa [7]) is listed as 0.9 µg/mL.

For `O=C1NC(=O)c2c(NCCCc3ccc(O)cc3O)cccc21` [Analog 14], the IC50 (P. aeruginosa [2]; Pseudomonas aeruginosa) was 143 µM.

In the case of `CC(=O)Nc1ccc(Br)cc1` [N-(4-bromophenyl)acetamide], the “fragment binding to BfrB” value (BfrB [4]) is reported as “bind at the Bfd-binding site”.

B1: Bfd: bacterioferritin-associated ferredoxin, cognate partner of the iron storage protein BfrB (protein, UniProt Q9HY80 1-73, looked up)
Bacterioferritin-associated …: MYVCLCQGVTDNQIRDAIYEGCCSYREVREATGVGTQCGKCACLAKQVVRETLNDLQSAQPVPAFGTTAFVAA
For B1, the Kd (BfrB [8]) is listed as 3.4 µM and 3 µM and ~3 µM and the Kd (BfrB [9]) is listed as 3.1 µM.

Source: US12251370B2, “Small molecule inhibitors of the BfrB:Bfd interaction” (BOARD OF SUPERVISORS OF LOUISIANA STATE UNIVERSITY AND …, priority 2018, dated 2025)
